Assays:
HER2 = biological target: T1, HER2 (Homo sapiens, UniProt P04626); assay: HER2 protein kinase assay (33PanQinase), single concentration; assay type: biochemical; details: 0.5 μM (5 × 10^−7 M), singlicate, % of control activity; for remaining activity at 0.5 µM: read-out: Residual activity under 0.5 μM drug concentration (%) HER2
T1 construct: purchased ProQinase GmbH
Protocol: (§1) The inhibitory profile of 16 compounds was determined using two protein kinases. The compounds were tested at a concentration of 5 × 1 0^−7 M, in singlicate. The compounds were solved and diluted to 5 × 10^−5 M stock solutions in 100% DMSO according to the customer-filled CSF. 10 μL of each of the stock solutions were transferred into […] of a 96-well, Column 1 and 2 of the plate were filled with 10 μL100% DMSO. The plate is in the following referred to as “copy plate”. In the process, 90 μL H2O were added to each well of the copy plate. To minimize potential compound precipitation, the H2O was added to each well only a few minutes before the transfer of the compound solutions into the assay plates. The plate was shaken thoroughly, resulting in a “compound dilution plate” with a compound concentration of 5 × 10^−6 M/10% DMSO. This plate was used for the transfer of 5 μL compound solution into the assay plates. The final volume of the assay was 50 μL. All compounds were tested at 5 × 1 0^−7 M in singlicate. The final DMSO concentration in the reaction cocktails was 1% in all cases. The compound dilution plate was disposed.
(§2) A radiometric protein kinase assay (33PanQinase® Activity Assay) was used for measuring the kinase activity of the two protein kinases. All kinase assays were performed in 96-well FlashPlatesTM from PerkinElmer (Boston, MA, USA) in a 50 μL reaction volume. The reaction cocktail was pipetted in 4 steps in the following order: 20 μL of assay buffer, 5 μL of ATP solution (in H2O), 5 μL of test compound (in 10% DMSO), 20 μL enzyme/subtrate mix. The assay for both protein kinases contained 70 mM HEPES-NaOH pH 7.5, 3 mM MgCl2, 3 mM MnCl2, 3 μM Na-orthovanadate, 1.2 mM DTT, ATP. The assay for ERBB2 additionally contained 50 μg/mLPEG20000. The reaction cocktails were incubated at 30 °C for 60 min. The reaction was stopped with 50 μL of 2% (v/v) H3PO4, plates were aspirated and washed two times with 200 μL 0.9% (w/v) NaCl. Incorporation of 33Pi was determined with a microplate scintillation counter (Microbeta, Wallac). All assays were performed with a BeckmanCoulter/SAGIAN™Core System. The median value of the counts in column 1 (n = 8) of each assay plate was defined as “low control”. This value reflects unspecific binding of radioactivity to the plate in the absence of a protein kinase but in the presence of the substrate. The median value of the counts in column 2 of each assay plate (n = 8) was taken as the “high control”. As part of the data evaluation the low control value from a particular plate was subtracted from the high control value as well as from all 80 “compound values” of the corresponding plate. The residual activity (in %) for each well of a particular plate was calculated by using the following formula: Res. Activity (%) = 100 × [(cpm of compound – low control)/(high control − low control)]

EGF-R wt = biological target: T2, EGF-R wt (Homo sapiens, UniProt P00533); assay: EGFR-wt protein kinase assay (33PanQinase), single concentration; assay type: biochemical; details: 0.5 μM (5 × 10^−7 M), singlicate, % of control activity; for remaining activity at 0.5 µM: read-out: Residual activity under 0.5 μM drug concentration (%) EGF-R wt
T2 construct: purchased ProQinase GmbH
Protocol: as §1, §2

Molecule | remaining activity at 0.5 µM (HER2) | remaining activity at 0.5 µM (EGF-R wt) | Residual activity under 0.5 μM drug concentration (%) EGF-R wt (EGF-R wt) | Residual activity under 0.5 μM drug concentration (%) HER2 (HER2)
C=CC(=O)N1CC2(CCN(C)CC2)c2cc(OC)c(Nc3ncc(C#N)c(Nc4ccc(OCc5ccccc5)c(Cl)c4)n3)cc21 [Compound A3, 4-{[4-(benzyloxy)-3-chlorophenyl]amino}-2-{[5-methoxy-1′-methyl-1-(prop-2-enoyl)-1,2-dihydrospiro[indole-3,4′-piperidine]-6-yl]amino}pyrimidine-5-carbonitrile] | 12% | 19% | – | –
C=CC(=O)N1CC2(CCN(C)CC2)c2cc(OC)c(Nc3ncc(C#N)c(Nc4cnn(Cc5ccccn5)c4)n3)cc21 [Compound A4, 2-{[5-methoxy-1′-methyl-1-(prop-2-enoyl)-1,2-dihydrospiro[indole-3,4′ -piperidine]-6-yl]amino}-4-{[1-(pyridin-2-ylmethyl)-1H-pyrazol-4-yl]amino}pyrimidine-5-carbonitrile] | 34% | 20 to 60% | 27% | –
COc1cc2c(cc1Nc1ncc(C#N)c(Nc3ccc(OCc4ccccn4)cc3)n1)N(C(=O)/C=C/CN(C)C)CC21CC1 [Compound B1, (2E)-4-{6′-[(5-cyano-4-{[4-(pyridin-2-ylmethoxy)phenyl]amino}pyrimidin-2-yl)amino]-5′-methoxyspiro[cyclopropane-1,3′-indole]-1′-yl}-1-(dimethylamino)-4-oxobut-2-en-2-yl] | 103% | 92% | – | –
COc1cc2c(cc1Nc1ncc(C#N)c(Nc3ccc(OCc4ccccn4)c(Cl)c3)n1)N(C(=O)/C=C/CN(C)C)CC21CC1 [Compound B2, (2E)-4-{6′-[(4-{[3-chloro-4-(pyridin-2-ylmethoxy)phenyl]amino}-5-cyanopyrimidin-2-yl)amino]-5′-methoxyspiro[cyclopropane-1,3′-indole]-1′-yl}-1-(dimethylamino)-4-oxobut-2-en-2-yl] | 100% | 97% | – | –
COc1cc2c(cc1Nc1ncc(C#N)c(Nc3ccc(OCc4ccccc4)c(Cl)c3)n1)N(C(=O)/C=C/CN(C)C)CC21CC1 [Compound B3, 4-{[4-(benzyloxy)-3-chlorophenyl]amino}-2-({1′-[(2E)-4-(dimethylamino)but-2-enoyl]-5′-methoxy-1′,2′-dihydrospiro[cyclopropane-1,3′-indole]-6′-yl}amino)pyrimidine-5-carbonitrile] | 102% | 95% | – | –
C=CC(=O)N1CC2(CC2)c2cc(OC)c(Nc3ncc(C#N)c(Nc4ccc(OCc5ccccn5)cc4)n3)cc21 [Compound B4, 3-{6′-[(5-cyano-4-{[4-(pyridin-2-ylmethoxy)phenyl]amino}pyrimidin-2-yl)amino]-5′-methoxyspiro [cyclopropane-1, 3′-indole]-1′-yl}-3-oxoprop-1-en-2-yl] | 99% | 87% | – | –
C=CC(=O)N1CC2(CC2)c2cc(OC)c(Nc3ncc(C#N)c(Nc4cnn(Cc5ccccn5)c4)n3)cc21 [Compound B7, 3-{6′-[(5-cyano-4-{[1-(pyridin-2-ylmethyl)pyrazol-4-yl]amino}pyrimidin-2-yl)amino]-5′-methoxyspiro[cyclopropane-1,3′-indole]-1′-yl}-3-oxoprop-1-en-2-yl] | 135% | 89% | – | –
COc1cc2c(cc1Nc1ncc(C#N)c(Nc3ccc(OCc4ccccn4)cc3)n1)N(C(=O)/C=C/CN(C)C)CC1(CC1)O2 [Compound C1, (2E)-4-{6-[(5-cyano-4-{[4-(pyridin-2-ylmethoxy)phenyl]amino}pyrimidin-2-yl)amino]-7-methoxyspiro[1,4-benzoxazine-2,1′-cyclopropane]-4-yl}-1-(dimethylamino)-4-oxobut-2-en-2-yl] | 100% | 86% | – | –
COc1cc2c(cc1Nc1ncc(C#N)c(Nc3ccc(OCc4ccccn4)c(Cl)c3)n1)N(C(=O)/C=C/CN(C)C)CC1(CC1)O2 [Compound C2, (2E)-4-{6-[(4-{[3-chloro-4-(pyridin-2-ylmethoxy)phenyl]amino}-5-cyanopyrimidin-2-yl)amino]-7-methoxyspiro[1,4-benzoxazine-2,1′-cyclopropane]-4-yl}-1-(dimethylamino)-4-oxobut-2-en-2-yl] | 108% | 76% | – | –
COc1cc2c(cc1Nc1ncc(C#N)c(Nc3ccc(OCc4ccccc4)c(Cl)c3)n1)N(C(=O)/C=C/CN(C)C)CC1(CC1)O2 [Compound C3, (2E)-4-{6-[(4-{[4-(benzyloxy)-3-chlorophenyl]amino}-5-cyanopyrimidin-2-yl)amino]-7-methoxyspiro[1,4-benzoxazine-2,1′-cyclopropane]-4-yl}-1-(dimethylamino)-4-oxobut-2-en-2-yl] | 111% | 79% | – | –
COc1cc2c(cc1Nc1ncc(C#N)c(Nc3cnn(Cc4ccccn4)c3)n1)N(C(=O)/C=C/CN(C)C)CC1(CC1)O2 [Compound C4, (2E)-4-{6-[(5-cyano-4-{[1-(pyridin-2-ylmethyl)pyrazol-4-yl]amino}pyrimidin-2-yl)amino]-7-methoxyspiro[1,4-benzoxazine-2,1′-cyclopropane]-4-yl}-1-(dimethylamino)-4-oxobut-2-en-2-yl] | 100% | 85% | – | –
CCOc1cc2ncc(C#N)c(Nc3ccc(OCc4ccccn4)c(Cl)c3)c2cc1NC(=O)/C=C/CN(C)C [Neratinib, reference compound] | 6% | – | – | –
(2E)-4-{6′-[(5-cyano-4-{[1-(pyridin-2-ylmethyl)pyrazol-4-yl]amino} pyrimidin-2-yl)amino]-5′-methoxyspiro[cyclopropane-1,3′-indole]-1′-yl}-1-(dimethylamino)-4-oxobut-2-en-2-yl trifluoroacetate [Compound B6] | – | – | 94% | 113%
